Biological target: T1, TRESK (Mus musculus, UniProt Q6VV64)
T1 construct: gene Kcnk18
T1 sequence (Q6VV64 1-394): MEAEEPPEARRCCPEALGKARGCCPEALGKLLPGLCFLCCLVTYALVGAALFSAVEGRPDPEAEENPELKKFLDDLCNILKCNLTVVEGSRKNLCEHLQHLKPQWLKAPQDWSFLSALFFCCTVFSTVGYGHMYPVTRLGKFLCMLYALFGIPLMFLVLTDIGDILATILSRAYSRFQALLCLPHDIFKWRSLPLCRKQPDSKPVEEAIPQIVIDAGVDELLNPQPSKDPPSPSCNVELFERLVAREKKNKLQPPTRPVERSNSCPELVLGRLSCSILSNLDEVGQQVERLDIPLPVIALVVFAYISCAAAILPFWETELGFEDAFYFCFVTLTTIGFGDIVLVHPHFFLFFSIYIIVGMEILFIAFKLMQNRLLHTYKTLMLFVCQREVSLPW
Assay: whole-cell patch clamp, photoblock of mouse versus human channel
Type: cell-based

SMILES: COc1ccccc1C(=O)Nc1cccc(N=Nc2cccc(C)c2)c1 [LAKI]
- whole-cell patch clamp, photoblock of mouse versus human channel: LAKI photoblock is conserved among species since TRESK and TRAAK channel inhibitions are similar in mouse and human

Source: paper PMC9977718, “A photoswitchable inhibitor of TREK channels controls pain in wild-type intact freely moving animals” (Nature Communications, 2023)
